Assay results: PubChem BioAssay AID1648 (Sanford-Burnham Center for Chemical Genomics, 2009)
Calls of active or inactive are those of the source. No rule for the calls is given here. Residues, ends and D or L forms follow the SMILES beside them.

molecular target: Serine/threonine-protein kinase mTOR (Homo sapiens) (UniProt P42345); assay: binders of mTOR FRB domain, biophysical, NMR (AID 1648); conditions: NMR binding to FRB domain, chemical shift
Sequence (P42345 2015-2114): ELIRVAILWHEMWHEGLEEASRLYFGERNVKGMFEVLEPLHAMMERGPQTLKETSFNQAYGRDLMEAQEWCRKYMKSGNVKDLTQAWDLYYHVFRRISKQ

Which Kd does the source give for `c1cnc(N2CCNCC2)nc1` here?
Its Kd is > 4 mM (inactive).

`COC(=O)CSc1ncnc2c(C)csc12` was tested. Which Kd did it give?
The Kd was > 4 mM (inactive).

For `Cc1nn(-c2ccccc2)nc1CN`, which Kd is on record?
Its Kd is > 4 mM (inactive).

For `O=C(Nc1ccon1)c1ccc(Cl)s1`, which Kd is on record?
The Kd was > 4 mM (inactive).

Which Kd does the source give for `O=C(O)Cn1cnc2ccccc2c1=O` here?
Its Kd is > 4 mM (inactive).

How did the Kd turn out when `Cc1nn(-c2ccccc2)c(Cl)c1C(N)=O` was run?
Its Kd is > 4 mM (inactive).

With `CC(=O)O[C@H]1C[C@@H](OC(C)=O)C(C)(C)C2CC(=O)[C@]3(C)C(CC[C@@]4(C)[C@H](c5ccoc5)OC(=O)[C@H]5O[C@]543)[C@]21C` (stereo partly drawn) as the compound, how does the Kd read?
The Kd was > 4 mM (inactive).

With `O=c1ccc2cc(O)c(O)cc2o1` as the compound, how does the Kd read?
Its Kd is > 4 mM (inactive).

How did the Kd turn out when `Cc1cc(NC(=O)CSc2nncn2C)no1` was run?
Its Kd is > 4 mM (inactive).

Which Kd does the source give for `CC1CCN(C(=S)c2ccccc2O)CC1` here?
Its Kd is > 4 mM (inactive).

Which Kd does the source give for `Cc1cc(C)n(-c2ccc(N)cc2)n1` here?
The Kd was > 4 mM (inactive).

`NC(=O)c1cccc2c(=O)oc3ccccc3c12` was tested. Which Kd did it give?
The Kd was > 4 mM (inactive).

Which Kd does the source give for `O=C(NCO)c1ccc([N+](=O)[O-])cc1` here?
Its Kd is > 4 mM (inactive).

`COC(CC(=O)O)c1nc2ccccc2s1` (stereo not drawn) was tested. Which Kd did it give?
Its Kd is > 4 mM (inactive).

How did the Kd turn out when `Nc1cccc2cccnc12` was run?
The Kd was > 4 mM (inactive).

For `O=c1[nH]c2ccc(S(=O)(=O)NC3CC3)cc2[nH]1`, which Kd is on record?
Its Kd is > 4 mM (inactive).

Which Kd does the source give for `O=C(c1ccccc1)c1cncc(Br)c1` here?
Its Kd is > 4 mM (inactive).

Which Kd does the source give for `C=C(C)[C@@H]1[C@H]2OC(=O)[C@@H]1[C@]1(O)C[C@H]3O[C@]34C(=O)O[C@H]2[C@]14C` here?
The Kd was > 4 mM (inactive).

`COc1ccc(NC(=O)/C=N/O)cc1` was tested. Which Kd did it give?
Its Kd is > 4 mM (inactive).

`O=C1CSC(=S)N1N1C(=O)C2C3C=CC(C3)C2C1=O` (stereo not drawn) was tested. Which Kd did it give?
Its Kd is > 4 mM (inactive).

With `CN1C2CC3C[C@H]1C(O3)C2O` (stereo partly drawn) as the compound, how does the Kd read?
Its Kd is > 4 mM (inactive).

With `COC(=O)Nc1c(C)n(C)n(-c2ccccc2)c1=O` as the compound, how does the Kd read?
Its Kd is > 4 mM (inactive).

For `COc1cccc(-c2csc(NC(C)=O)n2)c1`, which Kd is on record?
Its Kd is > 4 mM (inactive).

For `COC(=O)C[C@@H]1C2(C)C(=O)[C@@H](CC3=C4CC(O)O[C@@H](c5ccoc5)[C@]4(C)CCC32)[C@H](O)C1(C)C` (stereo partly drawn), which Kd is on record?
Its Kd is > 4 mM (inactive).

`Cc1cc(=O)oc2cc3c(cc12)OCCO3` was tested. Which Kd did it give?
Its Kd is > 4 mM (inactive).

For `C/C1=C\CCC(=O)C2CC(C)(C)C2CC1` (stereo not drawn), which Kd is on record?
The Kd was > 4 mM (inactive).

How did the Kd turn out when `O=C(c1ccc(Cl)s1)N1CCOCC1` was run?
The Kd was > 4 mM (inactive).

Which Kd does the source give for `Fc1cccc(Cl)c1CN1CCCNCC1` here?
The Kd was > 4 mM (inactive).

For `COc1ccc2nc(NC(=O)c3cnccn3)sc2c1`, which Kd is on record?
The Kd was > 4 mM (inactive).

How did the Kd turn out when `NCc1ccc(-n2cccn2)cc1` was run?
Its Kd is > 4 mM (inactive).

For `CC(=O)N[C@@H](CC(=O)O)C(=O)N[C@@H](CCC(=O)O)C(=O)O` (Ac-Asp-Glu-OH), which Kd is on record?
The Kd was > 4 mM (inactive).

Which Kd does the source give for `O=C(O)C1COc2ccccc2O1` (stereo not drawn) here?
The Kd was > 4 mM (inactive).

`Cc1c(N=Cc2ccco2)c(=O)n(-c2ccccc2)n1C` was tested. Which Kd did it give?
Its Kd is > 4 mM (inactive).

For `CC1(C)Cc2nc(N3CCOCC3)c(C#N)cc2CO1`, which Kd is on record?
The Kd was > 4 mM (inactive).

How did the Kd turn out when `COc1ccc(-c2coc3cc(OC)cc(OC)c3c2=O)cc1` was run?
Its Kd is > 4 mM (inactive).

How did the Kd turn out when `O=C(N1CCOCC1)N1CCN(c2ccccn2)CC1` was run?
The Kd was > 4 mM (inactive).

Which Kd does the source give for `O=C(O)C1CC(=O)N(CCc2ccc(Cl)cc2)C1` (stereo not drawn) here?
The Kd was > 4 mM (inactive).

How did the Kd turn out when `CN1C(=O)C2CC=C(Cl)CC2C1=O` (stereo not drawn) was run?
The Kd was > 4 mM (inactive).

How did the Kd turn out when `COc1cc(O)c2c(=O)cc(-c3ccc(OC)c(-c4c(O)cc(O)c5c(=O)cc(-c6ccc(O)cc6)oc45)c3)oc2c1` was run?
The Kd was > 4 mM (inactive).

For `C[C@H]1O[C@@H](O[C@H]2[C@@H](O)C[C@H](O[C@H]3[C@@H](O)C[C@H](O[C@H]4CC[C@]5(C)C6C[C@@H](O)[C@]7(C)[C@@H](C8=CC(=O)OC8)CC[C@]7(O)C6CC[C@@H]5C4)O[C@@H]3C)O[C@@H]2C)C[C@H](O)[C@@H]1O` (stereo partly drawn), which Kd is on record?
The Kd was > 4 mM (inactive).

Which Kd does the source give for `Cn1c(=O)[nH]c(=O)c2c1ncn2CCN1CCCCC1` here?
The Kd was > 4 mM (inactive).

With `Nc1nc(-c2ccc(F)c(F)c2)cs1` as the compound, how does the Kd read?
The Kd was > 4 mM (inactive).

`Nc1cccc(C(=O)c2ccccc2)c1` was tested. Which Kd did it give?
The Kd was > 4 mM (inactive).

Which Kd does the source give for `Nc1cccc(S(=O)(=O)N2CCCCC2)c1` here?
The Kd was > 4 mM (inactive).

For `CSc1nc2[nH]ncc2c(=O)[nH]1`, which Kd is on record?
Its Kd is > 4 mM (inactive).

How did the Kd turn out when `CC(=O)OCC(=O)[C@@]1(O)CCC2C3CC[C@@H]4C[C@H](OC(C)=O)CC[C@]4(C)C3C(=O)C[C@@]21C` (stereo partly drawn) was run?
The Kd was > 4 mM (inactive).

For `CSc1ccccc1NC(=O)c1ccoc1C`, which Kd is on record?
The Kd was > 4 mM (inactive).

How did the Kd turn out when `Cc1cc(C)n(-c2nc(C)nc(N)n2)n1` was run?
The Kd was > 4 mM (inactive).

For `O=C(Nc1ccncc1)Nc1ccc(F)cc1F`, which Kd is on record?
Its Kd is > 4 mM (inactive).

For `COc1ccccc1NC(=O)C1CCC(=O)N1` (stereo not drawn), which Kd is on record?
The Kd was > 4 mM (inactive).

`CSc1n[nH]c(NCc2cccs2)n1` was tested. Which Kd did it give?
The Kd was > 4 mM (inactive).

How did the Kd turn out when `COc1cc2c(cc1OC)C1(O)C(=O)c3ccc(O)c(C(=O)O)c3OC1CO2` (stereo not drawn) was run?
The Kd was > 4 mM (inactive).

For `Cc1cc(NC(=O)c2ccccc2C(=O)O)no1`, which Kd is on record?
Its Kd is > 4 mM (inactive).

`CC(C)(C)CC(=O)NC1=NCCS1` was tested. Which Kd did it give?
The Kd was > 4 mM (inactive).

`Cc1noc(C)c1C(=O)NCc1ccco1` was tested. Which Kd did it give?
Its Kd is > 4 mM (inactive).

For `OCC1CCN(c2ncccn2)CC1`, which Kd is on record?
Its Kd is > 4 mM (inactive).

For `Nc1c(/C=C2\C=Nc3ccccc32)c(=O)nc2scnn12`, which Kd is on record?
Its Kd is > 4 mM (inactive).

How did the Kd turn out when `O=C(O)CN(CCCc1ccccc1)CC(=O)O` was run?
The Kd was > 4 mM (inactive).

Which Kd does the source give for `COCC(=O)Nc1ccc(C)c(Cl)c1` here?
Its Kd is > 4 mM (inactive).

`O=c1oc2ccccc2cc1O` was tested. Which Kd did it give?
Its Kd is > 4 mM (inactive).

With `COCCn1cnc2cc(C)c(C)cc21` as the compound, how does the Kd read?
The Kd was > 4 mM (inactive).

`Cc1[nH]c2ccccc2c(=O)c1CO` was tested. Which Kd did it give?
The Kd was > 4 mM (inactive).

How did the Kd turn out when `C=C[C@@](C)(O)CCC1C(=C)C[C@H](O)C2C(C)(C)CCCC12C` (stereo partly drawn) was run?
The Kd was > 4 mM (inactive).

For `Cn1c(-c2ccccc2F)n[nH]c1=S`, which Kd is on record?
Its Kd is > 4 mM (inactive).

With `COc1ccccc1NC(C)=O` as the compound, how does the Kd read?
The Kd was > 4 mM (inactive).

How did the Kd turn out when `Nc1ccccc1N1CCOCC1` was run?
The Kd was > 4 mM (inactive).

Which Kd does the source give for `Nc1ncnc2c1ncn2CCN1CCCCC1` here?
Its Kd is > 4 mM (inactive).

How did the Kd turn out when `NC1CN2CCC1CC2` (stereo not drawn) was run?
The Kd was > 4 mM (inactive).

`Cc1[nH]c(=O)[nH]c(=O)c1N1CCOCC1` was tested. Which Kd did it give?
Its Kd is > 4 mM (inactive).

Which Kd does the source give for `NC1=NC(=O)/C(=C\c2cccnc2)S1` here?
Its Kd is > 4 mM (inactive).

How did the Kd turn out when `Cc1cc(C)n2nc(N)nc2n1` was run?
The Kd was > 4 mM (inactive).

Which Kd does the source give for `OC[C@H]1O[C@@H](n2cnc3c(NCc4ccco4)ncnc32)[C@H](O)[C@@H]1O` here?
Its Kd is > 4 mM (inactive).

`O=C1CC(C(=O)O)c2ccccc21` (stereo not drawn) was tested. Which Kd did it give?
The Kd was > 4 mM (inactive).

Which Kd does the source give for `CSc1ncc(C(=O)O)n1Cc1ccccc1` here?
The Kd was > 4 mM (inactive).

`COc1ccc(C(=O)CC(=O)O)c2c1C=CC(C)(C)O2` was tested. Which Kd did it give?
The Kd was > 4 mM (inactive).

For `Cc1nnsc1C(=O)N(C)c1ccccc1`, which Kd is on record?
The Kd was > 4 mM (inactive).

With `O=C(O)c1ccnc2ccccc12` as the compound, how does the Kd read?
The Kd was > 4 mM (inactive).

`NC(=O)Cn1nc(-c2ccco2)ccc1=O` was tested. Which Kd did it give?
The Kd was > 4 mM (inactive).

Which Kd does the source give for `CCC(C)C(=O)OC1[C@@H]2CC3=C4CC(=O)O[C@@H](c5ccoc5)[C@]4(C)CCC3C(C)(C2=O)[C@@H](CC(=O)OC)C1(C)C` (stereo partly drawn) here?
Its Kd is > 4 mM (inactive).

How did the Kd turn out when `Cc1cc(NC(=O)c2ccc3c(c2)OCO3)no1` was run?
Its Kd is > 4 mM (inactive).

`Oc1cc(O)c2c(c1)O[C@H](c1ccc(O)c(O)c1)[C@@H](O)C2` was tested. Which Kd did it give?
Its Kd is > 4 mM (inactive).

`Cc1noc(C)c1C(=O)Nc1sc(C)c(C)c1C#N` was tested. Which Kd did it give?
Its Kd is > 4 mM (inactive).

`NS(=O)(=O)c1ccccc1Cl` was tested. Which Kd did it give?
Its Kd is > 4 mM (inactive).
